Results reported in the NIST ThermoML archive (doi:10.1021/je049743g).
“And” between values parts separate entries of the source, which are not always exact repeats. Equal values may be shown once.

Assay: wn = mass fraction of the nth substance listed
Settings: Capillary rise

FC(C(F)(F)F)C(F)(F)F [1,1,1,2,3,3,3-heptafluoropropane] + FCF
Settings | surface tension liquid-gas
252.66 K, w2 = 0.3988 | 12.74 mN/m and 12.77 mN/m
252.82 K, w2 = 0.3003 | 12.41 mN/m
254.68 K, w2 = 0.3983 | 12.35 mN/m and 12.37 mN/m
254.83 K, w2 = 0.544 | 12.71 mN/m
255.1 K, w2 = 0.2998 | 12.14 mN/m and 12.13 mN/m
256.92 K, w2 = 0.354 | 11.85 mN/m
257.09 K, w2 = 0.5434 | 12.37 mN/m and 12.38 mN/m
257.1 K, w2 = 0.2993 | 11.77 mN/m and 11.79 mN/m
257.1 K, w2 = 0.3977 | 12.02 mN/m and 12.03 mN/m
258.83 K, w2 = 0.5429 | 11.97 mN/m
258.84 K, w2 = 0.7282 | 12.63 mN/m and 12.65 mN/m
258.88 K, w2 = 0.3972 | 11.74 mN/m
259 K, w2 = 0.2988 | 11.52 mN/m and 11.51 mN/m
260.89 K, w2 = 0.3528 | 11.26 mN/m and 11.25 mN/m
260.99 K, w2 = 0.5423 | 11.65 mN/m
261.01 K, w2 = 0.2982 | 11.3 mN/m
261.05 K, w2 = 0.3966 | 11.49 mN/m and 11.48 mN/m
262.75 K, w2 = 0.2977 | 11 mN/m and 10.97 mN/m
262.79 K, w2 = 0.3521 | 11.06 mN/m
262.8 K, w2 = 0.7274 | 12.12 mN/m and 12.08 mN/m
262.85 K, w2 = 0.3961 | 11.14 mN/m
262.96 K, w2 = 0.5417 | 11.34 mN/m
262.98 K, w2 = 0.3961 | 11.14 mN/m and 11.18 mN/m
264.66 K, w2 = 0.727 | 11.63 mN/m and 11.62 mN/m
264.68 K, w2 = 0.5412 | 11.11 mN/m and 11.09 mN/m
264.87 K, w2 = 0.3955 | 10.9 mN/m and 10.92 mN/m
264.88 K, w2 = 0.3514 | 10.71 mN/m and 10.75 mN/m
264.96 K, w2 = 0.297 | 10.65 mN/m
266.51 K, w2 = 0.2966 | 10.42 mN/m and 10.44 mN/m
266.75 K, w2 = 0.5405 | 10.75 mN/m and 10.74 mN/m
266.88 K, w2 = 0.3507 | 10.44 mN/m and 10.47 mN/m
267.04 K, w2 = 0.3948 | 10.5 mN/m and 10.52 mN/m
268.37 K, w2 = 0.296 | 10.2 mN/m and 10.23 mN/m
268.37 K, w2 = 0.54 | 10.53 mN/m and 10.52 mN/m
268.63 K, w2 = 0.7261 | 11.05 mN/m and 11 mN/m
268.72 K, w2 = 0.3943 | 10.33 mN/m
268.79 K, w2 = 0.35 | 10.2 mN/m and 10.23 mN/m
270.7 K, w2 = 0.3936 | 10.06 mN/m and 10.03 mN/m
270.78 K, w2 = 0.3493 | 9.92 mN/m
270.78 K, w2 = 0.5392 | 10.1 mN/m
270.81 K, w2 = 0.2952 | 9.83 mN/m and 9.86 mN/m
272.17 K, w2 = 0.7252 | 10.38 mN/m
272.9 K, w2 = 0.2945 | 9.56 mN/m and 9.6 mN/m
272.91 K, w2 = 0.7249 | 10.28 mN/m
273.15 K, w2 = 0.3928 | 9.64 mN/m and 9.66 mN/m
273.15 K, w2 = 0.5383 | 9.73 mN/m
273.6 K, w2 = 0.3482 | 9.51 mN/m
275.16 K, w2 = 0.2937 | 9.29 mN/m and 9.31 mN/m
275.3 K, w2 = 0.392 | 9.26 mN/m and 9.29 mN/m
275.48 K, w2 = 0.5375 | 9.44 mN/m
275.5 K, w2 = 0.3474 | 9.19 mN/m and 9.23 mN/m
275.5 K, w2 = 0.7242 | 9.87 mN/m and 9.89 mN/m
276.85 K, w2 = 0.2931 | 9.01 mN/m and 9.05 mN/m
277.27 K, w2 = 0.3913 | 9.02 mN/m and 9.06 mN/m
277.3 K, w2 = 0.7237 | 9.66 mN/m and 9.65 mN/m
277.39 K, w2 = 0.3466 | 8.95 mN/m and 8.98 mN/m
277.43 K, w2 = 0.5367 | 9.29 mN/m
279.39 K, w2 = 0.7231 | 9.32 mN/m and 9.34 mN/m
279.42 K, w2 = 0.2921 | 8.71 mN/m
279.43 K, w2 = 0.5359 | 8.92 mN/m
279.46 K, w2 = 0.3457 | 8.67 mN/m
279.6 K, w2 = 0.3904 | 8.74 mN/m and 8.76 mN/m
281.21 K, w2 = 0.3898 | 8.45 mN/m and 8.46 mN/m
281.3 K, w2 = 0.5351 | 8.65 mN/m and 8.64 mN/m
281.45 K, w2 = 0.3448 | 8.4 mN/m and 8.41 mN/m
281.51 K, w2 = 0.2913 | 8.39 mN/m
281.54 K, w2 = 0.7224 | 8.9 mN/m and 8.93 mN/m
283.11 K, w2 = 0.2907 | 8.2 mN/m
283.17 K, w2 = 0.389 | 8.23 mN/m
283.29 K, w2 = 0.7219 | 8.59 mN/m and 8.61 mN/m
283.3 K, w2 = 0.5342 | 8.39 mN/m and 8.4 mN/m
283.49 K, w2 = 0.3439 | 8.13 mN/m
284.67 K, w2 = 0.5336 | 8.04 mN/m and 8.07 mN/m
285.18 K, w2 = 0.7212 | 8.37 mN/m
285.19 K, w2 = 0.3882 | 7.93 mN/m and 7.99 mN/m
285.24 K, w2 = 0.2898 | 7.93 mN/m and 7.9 mN/m
285.46 K, w2 = 0.343 | 7.94 mN/m and 7.95 mN/m
286.62 K, w2 = 0.3876 | 7.79 mN/m
286.86 K, w2 = 0.2891 | 7.75 mN/m and 7.71 mN/m
287.47 K, w2 = 0.342 | 7.57 mN/m
287.63 K, w2 = 0.5322 | 7.69 mN/m and 7.73 mN/m
289.31 K, w2 = 0.5314 | 7.44 mN/m and 7.45 mN/m
289.33 K, w2 = 0.7197 | 7.78 mN/m
289.37 K, w2 = 0.288 | 7.41 mN/m
289.37 K, w2 = 0.3411 | 7.34 mN/m and 7.38 mN/m
289.42 K, w2 = 0.3863 | 7.45 mN/m
289.68 K, w2 = 0.2879 | 7.29 mN/m
289.89 K, w2 = 0.7195 | 7.55 mN/m and 7.53 mN/m
290.16 K, w2 = 0.386 | 7.2 mN/m
291.25 K, w2 = 0.2872 | 7.12 mN/m
291.47 K, w2 = 0.34 | 7.14 mN/m
291.47 K, w2 = 0.5304 | 7.13 mN/m and 7.18 mN/m
291.5 K, w2 = 0.3854 | 7.05 mN/m and 7.03 mN/m
291.53 K, w2 = 0.2871 | 7.07 mN/m and 7.05 mN/m
291.66 K, w2 = 0.3853 | 7.07 mN/m and 7.11 mN/m
291.67 K, w2 = 0.5303 | 7.18 mN/m and 7.16 mN/m
291.93 K, w2 = 0.7187 | 7.33 mN/m and 7.35 mN/m
293.1 K, w2 = 0.2864 | 6.87 mN/m
293.2 K, w2 = 0.3391 | 6.83 mN/m and 6.87 mN/m
293.46 K, w2 = 0.2862 | 6.81 mN/m and 6.79 mN/m
293.53 K, w2 = 0.5293 | 6.9 mN/m
293.53 K, w2 = 0.7181 | 7.06 mN/m and 7.09 mN/m
293.8 K, w2 = 0.3843 | 6.67 mN/m and 6.69 mN/m
